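The compound was tested at five concentrations on cells cultured in 96-well plates, with a 48-hour exposure period. The concentration for 50% growth inhibition is given as GI50. TGI is the concentration that stops growth completely.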
Assays:
Assay in all cases: NCI tumour cell line growth inhibition, 48 h
A549 NSCLC = test system: A549 NSCLC
COLO 205 colon = test system: COLO 205 colon
HCC-2998 colon = test system: HCC-2998 colon
MDA-MB-435 = test system: MDA-MB-435
OVCAR-5 ovarian = test system: OVCAR-5 ovarian
SNB-75 CNS = test system: SNB-75 CNS
SW-620 colon = test system: SW-620 colon
T-47D breast = test system: T-47D breast
UO-31 renal = test system: UO-31 renal
HL-60(TB) leukemia = test system: HL-60(TB) leukemia

| SMILES | TGI (A549 NSCLC) [µM] | TGI (COLO 205 colon) [µM] | TGI (HCC-2998 colon) [µM] | TGI (MDA-MB-435) [µM] | TGI (OVCAR-5 ovarian) [µM] | TGI (SNB-75 CNS) [µM] | TGI (SW-620 colon) [µM] | TGI (T-47D breast) [µM] | TGI (UO-31 renal) [µM] | GI50 (A549 NSCLC) [µM] | GI50 (COLO 205 colon) [µM] | GI50 (HCC-2998 colon) [µM] | GI50 (MDA-MB-435) [µM] | GI50 (OVCAR-5 ovarian) [µM] | GI50 (SNB-75 CNS) [µM] | GI50 (SW-620 colon) [µM] | GI50 (T-47D breast) [µM] | GI50 (UO-31 renal) [µM] | GI50 (HL-60(TB) leukemia) [µM] | TGI (HL-60(TB) leukemia) [µM] |
| --- | --- | --- | --- | --- | --- | --- | --- | --- | --- | --- | --- | --- | --- | --- | --- | --- | --- | --- | --- | --- |
| NC(CSc1nc2ccccn2c1[N+](=O)[O-])C(=O)O (stereo not given) | > 100 | > 100 | > 100 | > 100 | > 100 | > 100 | > 100 | > 100 | 8.54 |  |  |  |  |  |  |  |  |  |  |  |
| O=C(Nc1ccccc1)NS(=O)(=O)c1ccc(N2N=C3c4ccccc4CC3C2c2ccccn2)cc1 (stereo not given) | > 100 | > 100 | 33.3 | 54 | 97.9 | > 100 | > 100 | > 100 | > 100 | 29.2 | 31.1 | 17.3 | 21.4 | 26.8 | > 100 | 34 | 93 | 48.8 |  |  |
| COc1cc2ccnc3c2c(c1OC)-c1ccc(=O)ccc1-3 | 55.4 | 97.8 | > 100 | 90.6 | > 100 | 80.1 | > 100 | 65.5 | > 100 | 18.2 | 35.2 | 32.1 | 31.5 | 51.7 | 25.9 | 13.9 | 27.6 | 30 |  |  |
| COc1cc2nc(N3CCCC3)nc(Nc3ccccc3)c2cc1OC | 4.31 | 3.96 | 3.65 | 3.09 | 3.14 | 2.7 | 3.17 |  | 2.84 | 1.65 | 1.3 | 1.9 | 1.66 | 1.75 | 1.39 | 1.52 |  | 1.39 | 0.635 | 2.42 |
| Cc1ncc(C(=O)Nc2ccc(CN3CCN(C)CC3)c(C(F)(F)F)c2)cc1C#Cc1cnc(N)c2ncccc12 | 2.69 | 1.61 |  | 1.58 | 2.81 | 2.26 | 2.9 | 27.4 | 0.775 | 0.391 | 0.0424 |  | 0.0419 | 0.807 | 0.3 | 0.208 | 5.36 | 0.0596 | 0.164 | 7.67 |
| ClC1=NC(Cl)C(Cl)=N/C1=N\c1ncn[nH]1 (stereo not given) | 34.4 | 4.55 | 4.28 | 6.01 | 3.27 | 20.7 | 4.3 | 3.91 | 3.25 | 17.1 | 2.28 | 2.17 | 2.24 | 1.71 | 5.64 | 2.06 | 1.9 | 1.68 |  |  |
| N#Cc1cccc(/C=C(/C(=O)c2ccccc2)c2ccccc2)c1 | 47.6 | 20 | 9.35 | 11 | 29.1 | 17.5 | 15.5 | 17.3 | 19 | 10.8 | 5.3 | 3.15 | 3 | 11.9 | 4.69 | 3.28 | 3.78 | 5.31 |  |  |
| CNNC(=N\S(=O)(=O)c1cc(C(=O)Nc2ccc(Cl)cc2)c(Cl)cc1SCc1ccccc1)/N=C/c1ccc([N+](=O)[O-])s1 | > 100 | > 100 | > 100 | > 100 | > 100 |  | > 100 | > 100 | > 100 | 20.5 | 8.97 | 2.83 | 23.4 | > 100 |  | > 20.9 | 7.07 | > 100 | > 100 | > 100 |
| N#CSCc1c(Cl)cccc1Cl | > 100 | 4.97 | 45.2 | 5.63 | > 100 | > 100 | > 46.3 | > 96.1 | 27.6 | 3.31 | 2.34 | 4.19 | 2.11 | 7.41 | 20.2 | 0.76 | 13.3 | 4.41 |  |  |
| COc1ccc(/C=C/C(=O)c2ccc3cc(OC)c(OC)cc3c2)cc1OC | 10.6 | 13.2 | 13.9 | 18.1 | > 100 |  | 14.2 | 33.5 | 12.7 | 2.59 | 4.1 | 3.92 | 3.06 | 4.81 |  | 3.32 | 2.93 | 2.85 | 3.46 | 10.1 |
| CC(=O)OC1CCC2(C)C(CCC3C4CC=C(C(C)=O)C4(C)OC(=O)CC32)C1 (stereo not given) | 23.1 | 3.02 | 4.06 | 4.66 | 7.63 |  | 3.43 | 3.4 | 7.89 | 7.22 | 1.64 | 2.21 | 1.71 | 2.75 |  | 1.52 | 1.64 | 2.05 | 2.05 | 5.05 |
| CC1=CC2=C(C(N)=O)C(=O)OC2(C)C(c2ccccc2)C1 (stereo not given) | > 100 |  |  | > 100 | > 100 | > 100 | > 100 |  | > 100 |  |  |  |  |  |  |  |  |  |  | > 100 |
| ICCC(c1ccccc1)(c1ccccc1)c1ccccc1 | 19.6 | 3.85 | 27.6 | 6.72 | 27.1 | 13 |  | 34.1 | 9.87 | 5.92 | 2.02 | 8.41 | 2.14 | 13.4 | 1.7 |  | 14 | 1.72 | 1.72 | 3.88 |
| CC[C@H](C)[C@H](NC(=O)Nc1ccccc1)C(=O)N(C)[C@H](C[C@@H](OC(C)=O)c1nc(C(=O)N[C@@H](Cc2ccccc2)C[C@H](C)C(=O)OC)cs1)C(C)C | > 100 | 18.2 | > 100 | 1.86 | > 100 |  | > 100 |  | > 100 | 7.49 | 3.17 | 3.48 | 0.416 | 11.9 |  | 3.58 |  | 6.82 |  |  |
| CC(=O)C1C(=O)C(=O)N(c2ccccc2N2C(=O)C(=O)C(C(C)=O)C2=O)C1=O (stereo not given) | > 100 | > 100 | > 100 |  | > 100 | > 100 | > 100 |  | > 100 |  |  |  |  |  |  |  |  |  |  | > 100 |
| O=C1[C@@H]2C3SC(c4ccccc43)[C@@H]2C(=O)N1c1ccccc1 | > 100 | > 100 | > 100 |  | > 100 | > 83 | > 100 |  | > 100 |  |  |  |  |  |  |  |  |  |  | > 100 |
| CC(=O)OCC1OC(n2c(=O)n(-c3ccccc3)c(=O)c3cc(Br)cc(Br)c32)C(OC(C)=O)C(OC(C)=O)C1OC(C)=O (stereo not given) | > 100 | > 100 | > 100 |  | > 100 | > 100 | > 100 |  | > 100 |  |  |  |  |  |  |  |  |  |  | > 100 |
| Cc1cccc(NC(=O)CCl)c1 | > 10 | > 10 | > 10 | > 10 | > 10 |  | > 10 | > 10 |  |  |  |  |  |  |  |  |  |  |  | > 10 |
| C#C[C@@]1(O)[C@@H](CO)O[C@@H](n2ccc3c(N)ncnc32)[C@@H]1O | > 100 | 2.67 | 3.12 | 3.49 | 8.54 |  | 12.7 | 2.14 |  | 1.31 | 0.679 | 1.45 | 1.48 | 3.1 |  | 0.493 | 0.445 |  | 1.57 | 5.49 |
| O=C(O)CCCCCO | > 100 | > 100 | > 100 |  | > 100 | > 100 | > 100 |  | > 100 |  |  |  |  |  |  |  |  |  |  | > 100 |
| O=C(CC(=O)Nc1ccccc1O)Nc1ccccc1O | 95.1 | 33.2 | > 100 |  | > 100 | 37.2 | 17.1 |  | 27 |  |  |  |  |  |  |  |  |  |  | 6.01 |
| Cc1ccc(C2(O)CC(c3ccc([N+](=O)[O-])o3)=NN2C(=O)COc2ccccc2Cl)cc1 (stereo not given) | > 100 | 24.1 | 38.3 |  | > 91.8 | > 75.4 | 72.3 |  | > 100 |  |  |  |  |  |  |  |  |  |  | 12.9 |
| NCCCC1NC(=O)/C(=C(O)/C=C/C2CCC[C@@H]2CC2SCCS2)C1=O (stereo not given in full) | > 100 | > 100 | > 100 |  | > 100 | > 100 | > 100 |  | > 100 |  |  |  |  |  |  |  |  |  |  | 64.3 |
| O=Cc1ccc(Oc2c3ccccc3nc3occc23)cc1 | 50.5 | 63 |  | 24.7 | 89.7 | 85.2 |  | 36.3 | > 100 | 22.4 | 21.8 |  | 6.49 | 18.6 | 19.3 |  | 11.4 | 26.4 | 22.9 | 56.9 |
| CCC[CH2][Ge]([CH2]CCC)([CH2]CCC)[O]C(=O)C(OC)c1ccccc1 (stereo not given) | > 100 | > 100 | 59 |  | > 78.3 | > 100 | > 100 |  | > 100 | > 36.9 | 45.8 | 23.2 |  | 31.5 | 41.1 | 47.3 |  | > 41.7 | 2.96 | > 26.1 |
